Test: xn = mol fraction of the nth substance listed
Conditions: 100 kPa

CC[n+]1ccn(C)c1.N#C[S-] + CCOS(=O)(=O)[O-].CC[n+]1ccn(C)c1
Conditions | electrical conductivity [S/m] | viscosity [mPa·s]
298.15 K, x1 = 0.199 | 0.421 | 96.4
298.15 K, x1 = 0.32 | 0.569 | 83.5
298.15 K, x1 = 0.429 | 0.745 | 65.3
298.15 K, x1 = 0.899 | 1.84 | 27.8
298.15 K, x1 = 0.9505 | 2.1 | 25
298.15 K, x1 = 1 | 2.32 | 23.1
303.15 K, x1 = 0.199 | 0.512 | 76.1
303.15 K, x1 = 0.32 | 0.696 | 66.5
303.15 K, x1 = 0.429 | 0.809 | 52.7
303.15 K, x1 = 0.67 | 1.38 | 35.8
303.15 K, x1 = 0.899 | 2.15 | 23.5
303.15 K, x1 = 0.9505 | 2.29 | 21.2
303.15 K, x1 = 1 | 2.67 | 19.68
308.15 K, x1 = 0.32 | 0.842 | 53.9
308.15 K, x1 = 0.429 | 1.09 | 43.1
308.15 K, x1 = 0.67 | 1.62 | 30
308.15 K, x1 = 0.899 | 2.5 | 20.07
308.15 K, x1 = 0.9505 | 2.79 | 18.2
308.15 K, x1 = 1 | 3.06 | 16.97
313.15 K, x1 = 0.199 | 0.733 | 61.2
313.15 K, x1 = 0.32 | 1 | 53.9
313.15 K, x1 = 0.67 | 1.88 | 30
313.15 K, x1 = 0.899 | 2.85 | 20.07
313.15 K, x1 = 0.9505 | 3.18 | 18.2
313.15 K, x1 = 1 | 3.47 | 16.97
318.15 K, x1 = 0.199 | 0.861 | 50.1
318.15 K, x1 = 0.32 | 1.19 | 44.4
318.15 K, x1 = 0.429 | 1.29 | –
318.15 K, x1 = 0.67 | 2.18 | –
318.15 K, x1 = 0.899 | 3.25 | –
318.15 K, x1 = 1 | 3.92 | 14.54
323.15 K, x1 = 0.199 | 1.02 | 34.7
323.15 K, x1 = 0.32 | 1.38 | 31.1
323.15 K, x1 = 0.429 | 1.52 | 25.7
323.15 K, x1 = 0.67 | 2.49 | 18.78
323.15 K, x1 = 0.9505 | 4.04 | 12.2
323.15 K, x1 = 1 | 4.38 | 11.49
328.15 K, x1 = 0.199 | – | 29.5
328.15 K, x1 = 0.32 | – | 26.6
328.15 K, x1 = 0.67 | – | 16.38
328.15 K, x1 = 0.899 | – | 11.78
328.15 K, x1 = 0.9505 | – | 10.86
328.15 K, x1 = 1 | – | 10.25
333.15 K, x1 = 0.199 | – | 25.3
333.15 K, x1 = 0.429 | – | 19.14
333.15 K, x1 = 0.67 | – | 14.35
333.15 K, x1 = 0.899 | – | 10.37
333.15 K, x1 = 0.9505 | – | 9.56
333.15 K, x1 = 1 | – | 9.02
338.15 K, x1 = 0.199 | – | 21.85
338.15 K, x1 = 0.32 | – | 19.89
338.15 K, x1 = 0.429 | – | 16.74
338.15 K, x1 = 0.67 | – | 12.76
338.15 K, x1 = 0.9505 | – | 8.75
338.15 K, x1 = 1 | – | 8.3
343.15 K, x1 = 0.199 | – | 19.06
343.15 K, x1 = 0.67 | – | 11.37
343.15 K, x1 = 0.899 | – | 8.53
343.15 K, x1 = 0.9505 | – | 7.92
343.15 K, x1 = 1 | – | 7.53
348.15 K, x1 = 0.199 | – | 16.75
348.15 K, x1 = 0.32 | – | 15.38
348.15 K, x1 = 0.429 | – | 13.08
348.15 K, x1 = 0.67 | – | 10.21
348.15 K, x1 = 0.899 | – | 7.74
348.15 K, x1 = 1 | – | 6.87
353.15 K, x1 = 0.199 | – | 14.87
353.15 K, x1 = 0.32 | – | 13.71
353.15 K, x1 = 0.429 | – | 11.68
353.15 K, x1 = 0.67 | – | 9.16
353.15 K, x1 = 0.899 | – | 6.96
353.15 K, x1 = 0.9505 | – | 6.48
353.15 K, x1 = 1 | – | 6.17

— a compilation of properties of binary mixtures (doi:10.1016/j.fluid.2015.01.011)
